{"source": "patent US12617779B2", "about": "“Self degradation-type CDK9 inhibitor prodrug and liposome encapsulating same” (Sumitomo Pharma Co., Ltd., priority 2021, dated 2026)", "key": {"[1]": {"assay": "Evaluation of conversion rate to active form in BALB/c mouse plasma (Experimental Example 3)", "format": "in vitro ADME", "conditions": "BALB/c, mouse, 0.2 μmol/L", "method": "(§1) For Example 1, Example 2, Example 3, Example 4, Example 5, Example 6, Comparative Example 3, Comparative Example 4, Comparative Example 6, Comparative Example 7, Comparative Example 8, Comparative Example 9, Comparative Example 10 and Comparative Example 12, the attrition rate of the test compound and the conversion rate of the test compound to Alvocidib in human plasma and BALB/c mouse plasma were calculated by the following method.\n(§2) The test compound was added to human plasma or BALB/c mouse plasma at a concentration of 0.2 μmol/L, and incubated at 37° C. The peak areas of the test compound and Alvocidib in the sample were determined by LC-MS/MS after 0, 30 and 60 minutes for Example 1, Example 2, Example 3, Example 4, Example 5 and Example 6, and after 0, 60 and 120 minutes for Comparative Example 3, Comparative Example 4, Comparative Example 6, Comparative Example 7, Comparative Example 8, Comparative Example 9, Comparative Example 10 and Comparative Example 12, and the attrition rate of the test compound and the conversion rate of the test compound to Alvocidib were calculated by the following formula. Attrition rate of test compound (%):(peak area of test compound in sample/peak area of test compound in sample after 0 minute)×100 Conversion rate to Alvocidib (%):(peak area of Alvocidib in sample/peak area of Alvocidib in reaction solution containing 0.2 μmol/L Alvocidib)×100\n(§3) The measurement conditions for LC-MS/MS are as follows. • HPLC: Prominence system (Shimadzu Corporation) • MS/MS: • Example 1, Example 2, Example 3, Example 4, Example 5, Example 6, Comparative Example 8 (mouse), Comparative Example 10 (mouse) and Comparative Example 12 (mouse) • QTRAP5500 (SCIEX) • Comparative Example 6, Comparative Example 7, Comparative Example 8 (human), Comparative Example 9, Comparative Example 10 (human) and Comparative Example 12 (human) • 4000 QTRAP (SCIEX) • column: • other than Example 3 and Example 4 • Cadenza CD-C18, 3 μm, 50×2 mm (Imtakt Corporation) • Example 3 and Example 4 • Kinetex C8, 2.6 μm, 50×2.1 mm (Phenomenex) • column temperature: 40° C. • mobile phase: • A: water containing 0.1% formic acid • B: acetonitrile containing 0.1% formic acid • A/B (min): • Example 1, Example 2, Example 5, Example 6, Comparative Example 8 (mouse), Comparative Example 10 (mouse) and Comparative Example 12 (mouse) • 90/10(0)→40/60(5.0)→10/90(5.1)→10/90(6.5)→90/10(6.6)→90/10(8.0) • Example 3 and Example 4 • 86/14(0)→86/14(3.5)→10/90(5.5)→10/90(6.5)→86/14(6.6)→86/14(9.5) • Comparative Example 6, Comparative Example 7, Comparative Example 8 (human), Comparative Example 9, Comparative Example 10 (human) and Comparative Example 12 (human) • 90/10(0)→10/90(2.5)→10/90(3.5)→90/10(3.6)→90/10(5.0) • flow rate: 0.4 mL/min • detection: ESI (positive mode) • injection: 1 to 5 μL"}, "[2]": {"assay": "Evaluation of conversion rate to active form in human plasma (Experimental Example 3)", "format": "in vitro ADME", "conditions": "human, 0.2 μmol/L", "method": "as §1, §2, §3"}, "[3]": {"assay": "Evaluation of conversion rate to active form in buffer solution (Experimental Example 1)", "format": "physicochemical", "summary_of_the_method": "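Stability across pH: 25 umol/L, 37° C, 50 mM citrate/phosphate, pH 5.0–7.4. Sampling at 0, 0.5, 1, 2, 3 h; HPLC determined loss of compound and Alvocidib generated.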"}}, "data": [{"smiles": "CN1CC[C@H](c2c(O)cc(O)c3c(=O)cc(-c4ccccc4Cl)oc23)[C@H](OC(=O)CN)C1", "note": "[Comparative Example 8, reference compound]", "values": [{"measurement": "Production rate (%) of Alvocidib", "setting": "[1]; 0 min", "result": 19, "unit": "%"}, {"measurement": "Residual rate (%) of test compound", "setting": "[1]; 0 min", "result": 100, "unit": "%"}, {"measurement": "Production rate (%) of Alvocidib", "setting": "[1]; 60 min", "result": 94, "unit": "%"}, {"measurement": "Residual rate (%) of test compound", "setting": "[1]; 60 min", "result": 14, "unit": "%"}, {"measurement": "Production rate (%) of Alvocidib", "setting": "[1]; 120 min", "result": 107, "unit": "%"}, {"measurement": "Residual rate (%) of test compound", "setting": "[1]; 120 min", "result": 4, "unit": "%"}, {"measurement": "Production rate (%) of Alvocidib", "setting": "[2]; 0 min", "result": 4, "unit": "%"}, {"measurement": "Residual rate (%) of test compound", "setting": "[2]; 0 min", "result": 100, "unit": "%"}, {"measurement": "Production rate (%) of Alvocidib", "setting": "[2]; 60 min", "result": 12, "unit": "%"}, {"measurement": "Residual rate (%) of test compound", "setting": "[2]; 60 min", "result": 87, "unit": "%"}, {"measurement": "Production rate (%) of Alvocidib", "setting": "[2]; 120 min", "result": 16, "unit": "%"}, {"measurement": "Residual rate (%) of test compound", "setting": "[2]; 120 min", "result": 94, "unit": "%"}, {"measurement": "Production rate of Alvocidib", "setting": "[3]; pH5.0, 0 hr", "result": 16.1, "unit": "%"}, {"measurement": "Residual rate", "setting": "[3]; pH5.0, 0 hr", "result": 83.4, "unit": "%"}, {"measurement": "Stability in buffer solution at pH 5", "setting": "[3]; pH 5, 37° C., up to 2 or 3 hours", "result": "unstable"}, {"measurement": "Production rate of Alvocidib", "setting": "[3]; pH5.0, 0.5 hr", "result": 17.7, "unit": "%"}, {"measurement": "Residual rate", "setting": "[3]; pH5.0, 0.5 hr", "result": 81.9, "unit": "%"}, {"measurement": "Production rate of Alvocidib", "setting": "[3]; pH5.0, 1 hr", "result": 19.2, "unit": "%"}, {"measurement": "Residual rate", "setting": "[3]; pH5.0, 1 hr", "result": 80.4, "unit": "%"}, {"measurement": "Production rate of Alvocidib", "setting": "[3]; pH5.0, 2 hr", "result": 21.6, "unit": "%"}, {"measurement": "Residual rate", "setting": "[3]; pH5.0, 2 hr", "result": 78.1, "unit": "%"}, {"measurement": "Production rate of Alvocidib", "setting": "[3]; pH5.0, 3 hr", "result": 25.7, "unit": "%"}, {"measurement": "Residual rate", "setting": "[3]; pH5.0, 3 hr", "result": 73.9, "unit": "%"}, {"measurement": "Production rate of Alvocidib", "setting": "[3]; pH5.5, 0 hr", "result": 16.1, "unit": "%"}, {"measurement": "Residual rate", "setting": "[3]; pH5.5, 0 hr", "result": 83.4, "unit": "%"}, {"measurement": "Production rate of Alvocidib", "setting": "[3]; pH5.5, 0.5 hr", "result": 18.8, "unit": "%"}, {"measurement": "Residual rate", "setting": "[3]; pH5.5, 0.5 hr", "result": 80.7, "unit": "%"}, {"measurement": "Production rate of Alvocidib", "setting": "[3]; pH5.5, 1 hr", "result": 21.4, "unit": "%"}, {"measurement": "Residual rate", "setting": "[3]; pH5.5, 1 hr", "result": 78.3, "unit": "%"}, {"measurement": "Production rate of Alvocidib", "setting": "[3]; pH5.5, 2 hr", "result": 26.2, "unit": "%"}, {"measurement": "Residual rate", "setting": "[3]; pH5.5, 2 hr", "result": 73.5, "unit": "%"}, {"measurement": "Production rate of Alvocidib", "setting": "[3]; pH5.5, 3 hr", "result": 32.0, "unit": "%"}, {"measurement": "Residual rate", "setting": "[3]; pH5.5, 3 hr", "result": 67.6, "unit": "%"}, {"measurement": "Production rate of Alvocidib", "setting": "[3]; pH6.0, 0 hr", "result": 16.3, "unit": "%"}, {"measurement": "Residual rate", "setting": "[3]; pH6.0, 0 hr", "result": 83.5, "unit": "%"}, {"measurement": "Production rate of Alvocidib", "setting": "[3]; pH6.0, 0.5 hr", "result": 27.2, "unit": "%"}, {"measurement": "Residual rate", "setting": "[3]; pH6.0, 0.5 hr", "result": 72.6, "unit": "%"}, {"measurement": "Production rate of Alvocidib", "setting": "[3]; pH6.0, 1 hr", "result": 36.3, "unit": "%"}, {"measurement": "Residual rate", "setting": "[3]; pH6.0, 1 hr", "result": 63.5, "unit": "%"}, {"measurement": "Production rate of Alvocidib", "setting": "[3]; pH6.0, 2 hr", "result": 62.9, "unit": "%"}, {"measurement": "Residual rate", "setting": "[3]; pH6.0, 2 hr", "result": 36.7, "unit": "%"}, {"measurement": "Production rate of Alvocidib", "setting": "[3]; pH6.0, 3 hr", "result": 65.4, "unit": "%"}, {"measurement": "Residual rate", "setting": "[3]; pH6.0, 3 hr", "result": 34.5, "unit": "%"}, {"measurement": "Production rate of Alvocidib", "setting": "[3]; pH6.5, 0 hr", "result": 16.5, "unit": "%"}, {"measurement": "Residual rate", "setting": "[3]; pH6.5, 0 hr", "result": 83.3, "unit": "%"}, {"measurement": "Production rate of Alvocidib", "setting": "[3]; pH6.5, 0.5 hr", "result": 33.1, "unit": "%"}, {"measurement": "Residual rate", "setting": "[3]; pH6.5, 0.5 hr", "result": 66.7, "unit": "%"}, {"measurement": "Production rate of Alvocidib", "setting": "[3]; pH6.5, 1 hr", "result": 45.9, "unit": "%"}, {"measurement": "Residual rate", "setting": "[3]; pH6.5, 1 hr", "result": 53.9, "unit": "%"}, {"measurement": "Production rate of Alvocidib", "setting": "[3]; pH6.5, 2 hr", "result": 54.4, "unit": "%"}, {"measurement": "Residual rate", "setting": "[3]; pH6.5, 2 hr", "result": 45.2, "unit": "%"}, {"measurement": "Production rate of Alvocidib", "setting": "[3]; pH6.5, 3 hr", "result": 79.4, "unit": "%"}, {"measurement": "Residual rate", "setting": "[3]; pH6.5, 3 hr", "result": 20.4, "unit": "%"}, {"measurement": "Production rate of Alvocidib", "setting": "[3]; pH7.0, 0 hr", "result": 16.6, "unit": "%"}, {"measurement": "Residual rate", "setting": "[3]; pH7.0, 0 hr", "result": 83.1, "unit": "%"}, {"measurement": "Production rate of Alvocidib", "setting": "[3]; pH7.0, 0.5 hr", "result": 35.4, "unit": "%"}, {"measurement": "Residual rate", "setting": "[3]; pH7.0, 0.5 hr", "result": 64.4, "unit": "%"}, {"measurement": "Production rate of Alvocidib", "setting": "[3]; pH7.0, 1 hr", "result": 49.3, "unit": "%"}, {"measurement": "Residual rate", "setting": "[3]; pH7.0, 1 hr", "result": 50.5, "unit": "%"}, {"measurement": "Production rate of Alvocidib", "setting": "[3]; pH7.0, 2 hr", "result": 67.6, "unit": "%"}, {"measurement": "Residual rate", "setting": "[3]; pH7.0, 2 hr", "result": 32.1, "unit": "%"}, {"measurement": "Production rate of Alvocidib", "setting": "[3]; pH7.0, 3 hr", "result": 83.5, "unit": "%"}, {"measurement": "Residual rate", "setting": "[3]; pH7.0, 3 hr", "result": 16.4, "unit": "%"}, {"measurement": "Production rate of Alvocidib", "setting": "[3]; pH7.4, 0 hr", "result": 16.7, "unit": "%"}, {"measurement": "Residual rate", "setting": "[3]; pH7.4, 0 hr", "result": 83.1, "unit": "%"}, {"measurement": "Production rate of Alvocidib", "setting": "[3]; pH7.4, 0.5 hr", "result": 34.2, "unit": "%"}, {"measurement": "Residual rate", "setting": "[3]; pH7.4, 0.5 hr", "result": 65.6, "unit": "%"}, {"measurement": "Production rate of Alvocidib", "setting": "[3]; pH7.4, 1 hr", "result": 47.4, "unit": "%"}, {"measurement": "Residual rate", "setting": "[3]; pH7.4, 1 hr", "result": 52.4, "unit": "%"}, {"measurement": "Production rate of Alvocidib", "setting": "[3]; pH7.4, 2 hr", "result": 67.0, "unit": "%"}, {"measurement": "Residual rate", "setting": "[3]; pH7.4, 2 hr", "result": 32.7, "unit": "%"}, {"measurement": "Production rate of Alvocidib", "setting": "[3]; pH7.4, 3 hr", "result": 81.4, "unit": "%"}, {"measurement": "Residual rate", "setting": "[3]; pH7.4, 3 hr", "result": 18.5, "unit": "%"}]}]}
